According to ChEMBL document CHEMBL1201862, “PubChem BioAssay data set” (2004):
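Briefly, cells in 96-well plates were exposed to five compound concentrations for 48 h, and endpoints were estimated by linear interpolation. Here, GI50 denotes the concentration required for 50% inhibition of growth.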 Calls of active or inactive are those of the source. Cut-off read from the data, not from the text of the source: active = GI50 up to about 1.1 µM and inactive = higher.

How the values were obtained:
Assay in all cases: inhibition of tumour cell growth, NCI panel, 48 h
A498 = system: A498
BT-549 = system: BT-549
CAKI-1 = system: CAKI-1
CCRF-CEM = system: CCRF-CEM
HOP-92 = system: HOP-92
HT-29 = system: HT-29
KM12 = system: KM12
MCF7 = system: MCF7
MDA-MB-231 = system: MDA-MB-231
MDA-MB-435 = system: MDA-MB-435
MDA-N = system: MDA-N
PC-3 = system: PC-3
SK-MEL-28 = system: SK-MEL-28
SK-OV-3 = system: SK-OV-3
SN12C = system: SN12C
SNB-19 = system: SNB-19
SNB-75 = system: SNB-75
T47D = system: T47D
TK-10 = system: TK-10
UO-31 = system: UO-31

N#Cc1c(N2CCN(c3ccc([N+](=O)[O-])cc3)CC2)[n+]([O-])c2ccc(Cl)cc2[n+]1[O-]
GI50 (A498): 0.575 µM (active) | GI50 (BT-549): 0.264 µM (active) | GI50 (CAKI-1): 0.489 µM (active) | GI50 (CCRF-CEM): 0.29 µM (active) | GI50 (HOP-92): 0.161 µM (active) | GI50 (HT-29): 1.31 µM (inactive) | GI50 (KM12): 1.7 µM (inactive) | GI50 (MCF7): 0.973 µM (active) | GI50 (MDA-MB-231): 1.04 µM (active) | GI50 (MDA-MB-435): 1.8 µM (inactive) | GI50 (MDA-N): 1.75 µM (inactive) | GI50 (PC-3): 0.836 µM (active) | GI50 (SK-MEL-28): 4.52 µM (inactive) | GI50 (SK-OV-3): 1.78 µM (inactive) | GI50 (SN12C): 0.966 µM (active) | GI50 (SNB-19): 2.81 µM (inactive) | GI50 (SNB-75): 2.36 µM (inactive) | GI50 (T47D): 0.716 µM (active) | GI50 (TK-10): 2.54 µM (inactive) | GI50 (UO-31): 1.43 µM (inactive)

CSc1ccc(/C=C2\N=C(c3ccccc3)N(c3nc4cc(Cl)c(F)cc4s3)C2=O)cc1
GI50 (A498): 43.5 µM (inactive) | GI50 (BT-549): 32.8 µM (inactive) | GI50 (CAKI-1): > 100 µM (inactive) | GI50 (CCRF-CEM): 25 µM (inactive) | GI50 (HOP-92): 42 µM (inactive) | GI50 (HT-29): 49.4 µM (inactive) | GI50 (KM12): 31.4 µM (inactive) | GI50 (MCF7): 39.9 µM (inactive) | GI50 (MDA-MB-231): 30.8 µM (inactive) | GI50 (MDA-MB-435): 33 µM (inactive) | GI50 (MDA-N): 30.3 µM (inactive) | GI50 (PC-3): 35.2 µM (inactive) | GI50 (SK-MEL-28): > 100 µM (inactive) | GI50 (SK-OV-3): 64.3 µM (inactive) | GI50 (SN12C): 36.7 µM (inactive) | GI50 (SNB-19): 25.1 µM (inactive) | GI50 (SNB-75): 25 µM (inactive) | GI50 (T47D): 26.1 µM (inactive) | GI50 (TK-10): > 100 µM (inactive) | GI50 (UO-31): 55.8 µM (inactive)

Cc1ccc2c(c1)-c1c(C#N)c(N)nc(-c3ccc(Cl)cc3)c1CCS2(=O)=O
GI50 (A498): 17.2 µM (inactive) | GI50 (BT-549): 13.6 µM (inactive) | GI50 (CAKI-1): 5.97 µM (inactive) | GI50 (CCRF-CEM): 1.12 µM (active) | GI50 (HOP-92): 44.5 µM (inactive) | GI50 (HT-29): 3.61 µM (inactive) | GI50 (KM12): 3.48 µM (inactive) | GI50 (MCF7): 5.37 µM (inactive) | GI50 (MDA-MB-231): 12.3 µM (inactive) | GI50 (MDA-MB-435): 2.52 µM (inactive) | GI50 (MDA-N): 1.65 µM (inactive) | GI50 (PC-3): 5.48 µM (inactive) | GI50 (SK-MEL-28): 20.6 µM (inactive) | GI50 (SK-OV-3): 8.38 µM (inactive) | GI50 (SN12C): 10.9 µM (inactive) | GI50 (SNB-19): 13.2 µM (inactive) | GI50 (SNB-75): 3.21 µM (inactive) | GI50 (T47D): 17.3 µM (inactive) | GI50 (TK-10): 43.6 µM (inactive) | GI50 (UO-31): 5.74 µM (inactive)

Clc1ccc(-c2nc3cc(C45CC6CC(CC(C6)C4)C5)ccc3[nH]2)cc1
GI50 (A498): > 95.7 µM (inactive) | GI50 (BT-549): 56.6 µM (inactive) | GI50 (CAKI-1): > 59.3 µM (inactive) | GI50 (CCRF-CEM): 8.3 µM (inactive) | GI50 (HOP-92): 17.7 µM (inactive) | GI50 (HT-29): 3.72 µM (inactive) | GI50 (KM12): 13.1 µM (inactive) | GI50 (MCF7): 18.5 µM (inactive) | GI50 (MDA-MB-231): > 100 µM (inactive) | GI50 (MDA-MB-435): 36.1 µM (inactive) | GI50 (MDA-N): 32.1 µM (inactive) | GI50 (PC-3): 14.3 µM (inactive) | GI50 (SK-MEL-28): 75 µM (inactive) | GI50 (SK-OV-3): > 100 µM (inactive) | GI50 (SN12C): 50.5 µM (inactive) | GI50 (SNB-19): 44.4 µM (inactive) | GI50 (SNB-75): > 100 µM (inactive) | GI50 (T47D): 24.2 µM (inactive) | GI50 (TK-10): 40.2 µM (inactive) | GI50 (UO-31): 15.3 µM (inactive)

CSc1nc2ccccc2c(=O)n1/N=C1\C(=O)N(CN2CCOCC2)c2ccc(Cl)cc21
GI50 (A498): 26.2 µM (inactive) | GI50 (BT-549): 15.6 µM (inactive) | GI50 (CAKI-1): 25.5 µM (inactive) | GI50 (CCRF-CEM): 10.6 µM (inactive) | GI50 (HOP-92): 67 µM (inactive) | GI50 (HT-29): 23.7 µM (inactive) | GI50 (KM12): 29.5 µM (inactive) | GI50 (MCF7): 19.6 µM (inactive) | GI50 (MDA-MB-231): 47.4 µM (inactive) | GI50 (MDA-MB-435): 28.4 µM (inactive) | GI50 (MDA-N): 31.8 µM (inactive) | GI50 (PC-3): 29 µM (inactive) | GI50 (SK-MEL-28): 56.2 µM (inactive) | GI50 (SK-OV-3): 30.6 µM (inactive) | GI50 (SN12C): 48.2 µM (inactive) | GI50 (SNB-19): 46.8 µM (inactive) | GI50 (SNB-75): 41.5 µM (inactive) | GI50 (T47D): 16.5 µM (inactive) | GI50 (TK-10): 16.9 µM (inactive) | GI50 (UO-31): 28.1 µM (inactive)

O=c1[nH]c(=O)n([C@H]2C[C@H](O)[C@@H](CO)O2)cc1Br [BROXURIDINE]
GI50 (A498): > 100 µM (inactive) | GI50 (BT-549): > 100 µM (inactive) | GI50 (CAKI-1): > 100 µM (inactive) | GI50 (CCRF-CEM): > 64.4 µM (inactive) | GI50 (HOP-92): > 100 µM (inactive) | GI50 (HT-29): > 100 µM (inactive) | GI50 (KM12): > 100 µM (inactive) | GI50 (MCF7): 17.7 µM (inactive) | GI50 (MDA-MB-231): > 100 µM (inactive) | GI50 (MDA-MB-435): > 100 µM (inactive) | GI50 (MDA-N): > 100 µM (inactive) | GI50 (PC-3): > 100 µM (inactive) | GI50 (SK-MEL-28): > 86.5 µM (inactive) | GI50 (SK-OV-3): > 100 µM (inactive) | GI50 (SN12C): > 100 µM (inactive) | GI50 (SNB-19): > 100 µM (inactive) | GI50 (SNB-75): > 100 µM (inactive) | GI50 (T47D): > 100 µM (inactive) | GI50 (TK-10): > 100 µM (inactive) | GI50 (UO-31): > 100 µM (inactive)

COc1ccc([C@@]23Oc4cc(OC)cc(OC)c4[C@]2(O)[C@H](O)[C@H](C(=O)N(C)C)[C@H]3c2ccccc2)cc1 [ROCAGLAMIDE]
GI50 (A498): 0.00791 µM (active) | GI50 (BT-549): 0.0583 µM (active) | GI50 (CAKI-1): 0.0292 µM (active) | GI50 (CCRF-CEM): 0.00366 µM (active) | GI50 (HOP-92): 0.0138 µM (active) | GI50 (HT-29): 0.00224 µM (active) | GI50 (KM12): 0.00294 µM (active) | GI50 (MCF7): 0.00292 µM (active) | GI50 (MDA-MB-231): 0.00776 µM (active) | GI50 (MDA-MB-435): 0.0036 µM (active) | GI50 (MDA-N): 0.00355 µM (active) | GI50 (PC-3): 0.00836 µM (active) | GI50 (SK-MEL-28): 0.00689 µM (active) | GI50 (SK-OV-3): 0.00575 µM (active) | GI50 (SN12C): 0.00815 µM (active) | GI50 (SNB-19): 0.267 µM (active) | GI50 (SNB-75): 0.00935 µM (active) | GI50 (T47D): 0.00219 µM (active) | GI50 (TK-10): 0.0146 µM (active) | GI50 (UO-31): 0.0158 µM (active)

O=C(O)CC(CC(=O)O)C(=O)O [TRICARBALLYLIC ACID]
GI50 (A498): > 100 µM (inactive) | GI50 (BT-549): > 100 µM (inactive) | GI50 (CAKI-1): > 100 µM (inactive) | GI50 (CCRF-CEM): > 100 µM (inactive) | GI50 (HOP-92): > 100 µM (inactive) | GI50 (HT-29): > 100 µM (inactive) | GI50 (KM12): > 100 µM (inactive) | GI50 (MCF7): > 100 µM (inactive) | GI50 (MDA-MB-231): > 100 µM (inactive) | GI50 (MDA-MB-435): > 100 µM (inactive) | GI50 (MDA-N): > 100 µM (inactive) | GI50 (PC-3): > 100 µM (inactive) | GI50 (SK-MEL-28): > 100 µM (inactive) | GI50 (SK-OV-3): > 100 µM (inactive) | GI50 (SN12C): > 100 µM (inactive) | GI50 (SNB-19): > 100 µM (inactive) | GI50 (SNB-75): > 100 µM (inactive) | GI50 (T47D): > 100 µM (inactive) | GI50 (TK-10): > 100 µM (inactive) | GI50 (UO-31): > 100 µM (inactive)
